Tests used:
MenT3 = molecular target: T1, MenT3 (Mycobacterium tuberculosis, UniProt P96356)
T1 construct: gene Rv1045

MenT1 = molecular target: T2, MenT1 (Mycobacterium tuberculosis, UniProt L7N686)
T2 construct: gene Rv0078A

PcnA = PcnA (Mycobacterium tuberculosis, UniProt L7N672)
Sequence of PcnA (L7N672 entry or part of it): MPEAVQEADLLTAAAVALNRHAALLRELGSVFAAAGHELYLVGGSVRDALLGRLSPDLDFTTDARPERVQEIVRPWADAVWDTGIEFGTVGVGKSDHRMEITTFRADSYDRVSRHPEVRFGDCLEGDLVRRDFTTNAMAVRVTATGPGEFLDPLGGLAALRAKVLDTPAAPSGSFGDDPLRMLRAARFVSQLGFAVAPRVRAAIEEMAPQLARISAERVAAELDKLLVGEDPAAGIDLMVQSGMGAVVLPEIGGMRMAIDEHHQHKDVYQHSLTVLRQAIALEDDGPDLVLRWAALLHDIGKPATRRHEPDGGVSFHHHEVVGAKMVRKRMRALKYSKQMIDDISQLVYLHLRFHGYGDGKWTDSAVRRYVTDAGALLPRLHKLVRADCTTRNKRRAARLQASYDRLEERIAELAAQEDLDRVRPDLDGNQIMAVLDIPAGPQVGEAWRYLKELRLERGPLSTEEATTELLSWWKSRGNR

T2 sequence (L7N686 1-197): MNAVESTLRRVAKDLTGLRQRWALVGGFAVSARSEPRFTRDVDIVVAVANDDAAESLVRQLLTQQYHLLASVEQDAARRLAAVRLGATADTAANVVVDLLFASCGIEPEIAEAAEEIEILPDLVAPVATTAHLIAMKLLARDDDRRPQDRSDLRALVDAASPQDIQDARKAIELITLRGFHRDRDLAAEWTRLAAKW
T1 sequence (P96356 1-293): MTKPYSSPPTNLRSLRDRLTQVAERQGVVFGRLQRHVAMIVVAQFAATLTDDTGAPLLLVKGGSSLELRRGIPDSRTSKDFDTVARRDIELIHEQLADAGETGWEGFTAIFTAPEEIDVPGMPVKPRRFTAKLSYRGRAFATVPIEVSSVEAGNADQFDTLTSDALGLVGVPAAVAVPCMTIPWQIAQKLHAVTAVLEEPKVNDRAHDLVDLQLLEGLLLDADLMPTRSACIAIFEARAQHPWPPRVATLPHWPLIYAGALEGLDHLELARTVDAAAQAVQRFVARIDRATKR

SMILES	transfer of alpha-32P nucleotide to tRNA, urea-PAGE autoradiography (MenT3)	transfer of alpha-32P nucleotide to tRNA, urea-PAGE autoradiography (MenT1)	pyrophosphorolysis of labelled tRNA, urea-PAGE autoradiography (PcnA)
Nc1ccn([C@@H]2O[C@H](COP(=O)(O)OP(=O)(O)OP(=O)(O)O)[C@@H](O)[C@H]2O)c(=O)n1 [CTP]	CTP is by far the preferred nucleotide substrate of MenT3 in vitro	in the presence of α-32P labeled CTP for MenT1 and MenT3	–
O=P(O)(O)OP(=O)(O)O [inorganic pyrophosphate]	–	–	PcnA is indeed capable of generating truncated tRNA^Ser-4ΔA and ΔCA from MenT3-modified tRNA
